Results on 1 compound are retold here after US7795263B2, “Pharmaceutical combination for and method of anesthetizing and immobilizing non-domesticated mammals” (Wildlife Laboratories, Inc., priority 2008, dated 2010).

The experiment has as its system captive white-tailed deer (Odocoileus virginianus). Briefly: BAM-1 / BAM-2 in captive white-tailed deer with NTA antagonist reversal (Example 4). It counts as in vivo. The settings on record: adult male not recovered after BAM-2 and NTA-1. As to the method:
BAM was administered to captive white-tailed deer (Odocoileus virginianus) at two dose levels (BAM-1 and BAM-2) in an approved-protocol study, to evaluate efficacy, quality of anesthesia, and quality of recovery following administration of tolazoline, atipamezole, and naltrexone antagonists.
The deer of the study were housed in large (0.4-0.8 ha) forested outdoor pens and were fed 17% protein ration with fresh hay and water available ad libitum. The average ambient temperature at time of immobilization and anesthesia was 14.4° C. Temperatures ranged from −1.7 to 25.6° C. […]
Immediately after BAM injection, each deer was released into a 15×20 m observation pen where the time to first noticeable drug effect (e.g., stumbling, gait changes) was recorded, the sternal time (when deer collapsed without rising again) was recorded, the lateral time (when deer lowered head and became immobile) was recorded, and the approachable time (when deer remained immobile and seemed oblivious to its surroundings) was recorded. […]
The heart rate (determined by auscultation), respiration rate (determined by thoracic movements), rectal temperature, and hemoglobin saturation level were recorded at 0, 10, and 20 minutes after recumbency. […] Heart rate readings from pulse oximetry were compared to heart rates as determined by auscultation. […]

On to `c1ccc(CC2=NCCN2)cc1` [tolazoline], for which the “effect of subsequent IM injection of 250 mg tolazoline” value is “led to recovery from anesthesia, with minimal ataxia”.
